Entries after “also recorded” stand apart in the source; their conditions may differ. Like-named read-outs stand apart in the source and are kept apart here.

One data set concerns ER glucosidase. The settings on record: 6000 uM; cited from earlier work.
Another data set relates to HBV. Nature of the data set: HBV antigen assay: LHBs and MHBs secreted by HepG2.2.15 cells, immunoblot. The class given is cell-based, Hepatitis B virus. The conditions noted are these: 7 days. How it is done:
MHBs and LHBs are HBV envelope proteins that are sensitive to glucosidase inhibition and inhibition of these important viral glycoproteins serves as a surrogate for HBV growth. […] To assess the activity of this compound in the context of viral replication, HepG2 2.2.15 cells were incubated with the indicated DNJ derived compound. HepG 2.2.15 cells secrete readily detectable amounts of MHBs and LHBs into the culture medium. After 7 days of incubation, the amount of HBV M and L in the culture medium was determined by western blot. […] The nature of the selective antiviral activity is not known, but may be due to cell specific activity since HBV is studied in human liver derived hepatoblastoma HepG2 cells and BVDV and WNV were studied in MDBK and BHK cells, respectively.
HBV antigen assay: Antiviral activity against HBV was determined using HepG2.2.15 cells, which contain a dimer of the HBV genome and express all viral gene products, including envelope glycoproteins (Sells, Chen, and Acs, 1987). Briefly, HepG2.2.15 cells were seeded in 24 well trays, and allowed to grow to confluence prior to addition of drug, as described previously (Simsek et al., 2005). After seven days of treatment, supernatants were harvested and assayed for the presence of the Large Hepatitis B (LHBs) and middle Hepatitis B (MHBs) glycoproteins by electrophoresis through 12% polyacrylamide gels and immunoblotting with a polyclonal antibody that recognizes the pre-S2 region of the LHBs and MHBs proteins (Research Diagnostics Inc., Flanders, N.J.) as described (Simsek et al., 2005). Quantitation was performed using AlphaEase software (Alphalnnotech).

Data set [1] is described as follows: MTT compound toxicity assay on BHK cells. The class given is cell-based. The settings on record: hamster; WNV (BHK); MTT, 50% reduction relative to DMSO. The protocol:
(§1) Compound toxicity assay. Compound cytotoxicity was assessed by using an MTT based toxicity assay kit (Sigma, St. Louis, Mo.) as described elsewhere (Gu et al., 2006). Briefly, cells cultured under conditions identical to those used in the viral assay were incubated with various concentrations of the compound for 72 hours. MTT was added to the media to a final concentration of 0.5 mg/ml and was incubated for 3 hours at 37 C. After the culture media was removed, formazan crystals was dissolved by adding 150 ul of solubilization solution (10% Triton X-100, 0.1 N HCl in anhydrous isopropanol) for 15-30 minutes. The absorbance of the dissolved formazan was measured spectrophotometrically at 570 nm with absorbance at 690 nm as background.

A further data set has as its system BVDV. Nature of the data set: BVDV single cycle virus yield reduction assay in MDBK cells. The class given is cell-based, Bovine Viral Diarrhea virus (NADL strain). How it is done: BVDV antiviral and plaque assays. To evaluate antiviral activity against BVDV, a single cycle virus yield reduction assay was performed in the presence of various concentrations of the test compounds. Specifically, 2×10^5 MDBK cells/well were plated in 24 well plates. Twenty-four hours later, the cells were infected with BVDV at a multiplicity of infection (moi) of 0.5 PFU/cell in 100 ul complete media. After adsorption for 1 h at 37° C., the inoculum was removed, and cells were washed with media before media containing vehicle or various concentrations of each compound was added. At 22 hour post infection, both cell and media were collected and freeze-thawed three times before the virus was titered. For BVDV virus titer determination, 10^−2, 10^−3, and 10^−4 dilutions of virus were inoculated onto MDBK cells as described previously (Gu et al., 2000; Jordan et al., 2002). After absorption and washing the cells were overlaid with medium containing methylcellulose or soft agar and incubated at 37° C. for 3 days or until plaques were visible. Plaques were counted directly under the microscope or after staining with crystal violet in 70% methanol for 15 min.
(§2) The anti-viral activity of this family of compounds against BVDV was then determined by a single cycle viral yield reduction assay in Madin Darby Bovine Kidney (MDBK) cells where the compounds are incubated with cells for 20 hours during the period of infection. Yields of virus were then determined by plaque assay on new MDBK cell monolayers. Compound toxicity was measured by MTT assay and the CC50 determined as the concentration of compound producing 50% reduction in absorption readings. […] This is consistent with previous findings in which oxygenation and methoxylation of side chains emanating from the ring nitrogen were less toxic in tissue culture and in animals than straight chain alkylated DNJs (Mehta et al., 2002b).

Another data set has as its system DV serotype 2. Nature of the data set: DV yield reduction assay in BHK cells. The format is cell-based, Dengue virus (DV) serotype 2. The protocol:
In the DV infection assay, a serotype 2 DV was used to infect BHK cells in the presence or absence of testing compounds and viruses produced after 72 hours were titered in a manner similar to the WNV assay. In this experiment, N-butylcyclohexyl-DNJ (SP169), N-pentyl(1-hydroxylcyclohexyl)-DNJ (OSL-95II), […] and N-propylcyclohexyl-DNJ (SP173) were compared with NNDNJ (Wu et al., 2002) and castanospermine. […] All compounds had no toxicity at the highest concentrations used in this experiment (FIG. 5B, Table 1).

Another data set concerns MDBK cells. Nature of the data set: MTT compound toxicity assay on MDBK cells. The format is cell-based, Bovine. The conditions noted are these: 72 hours. The protocol: as §1, §2
Data set [2] is described as follows: MTT compound toxicity assay on MDBK cells. The format is cell-based, Bovine. The conditions noted are these: bovine, BVDV (MDBK), concentration reducing MTT values (570 nm) by 50% relative to DMSO. The protocol:
as §1, §2

In a further data set the test system is WNV. Nature of the data set: WNV yield reduction assay in BHK cells. How it is done:
Cells and viruses. BVDV-free MDBK cells (CCL 22) were obtained from the American Type Culture Collection and propagated in DMEM/F12 essential medium supplemented with penicillin (500 U/ml), streptomycin (500 U/ml), and 10% heat inactivated horse serum (Invitrogen). Cells were maintained in a humidified incubator at 37° C. with 5% CO2. BVDV (NADL strain) was obtained from Dr. Rubin Donis (Univ. of Nebraska-Lincoln). For infections, virus inoculum was added in complete medium and adsorbed for 1 h at 37° C., the inoculum was then removed, the cells washed once with medium and fresh medium containing compounds added. Virus stocks were prepared by freeze-thawing the infected cells and culture supernatant three times followed by centrifugation at 1,000 g for 5 min. Stock titers were determined, and stocks were aliquoted and stored at −80° C. WNV was obtained from a cDNA clone of a human 2002 isolate from Texas (Rossi et al., 2005); virus obtained from BHK cells electroporated with the in vitro synthesized RNA from this cDNA clone was passaged in Vero cells before use in antiviral assays. Dengue virus (DV) serotype 2 was a New Guinea C virus that had been passaged 28 times in suckling mouse brain, twice in Vero cells, and once in C6/36 mosquito cells.
WNV and DV Yield Reduction assay: Antiviral activity against WNV was evaluated in a yield reduction assay. Briefly, BHK cells were plated in 96-well plates at a concentration of 2.5×10^4 cells/well. 24 hours after plating, the cells were infected with WNV at an MOI of 0.05. After 1 hour the inoculum was aspirated and the cells re-fed with fresh DMEM containing dilutions of the test compounds. Plates were then incubated at 37° C. for 48 hours, the supernatant collected and the WNV produced titered. For virus titration, Vero cells were plated in 96-well plates at 8.0×10^3 cells/well and incubated overnight. The Vero cell monolayers were then infected for 1 hour with various dilutions of the WNV supernatant, overlaid with media containing 0.6% tragacanth (ICN, CA) and incubated at 37° C. for 24-30 hours. The culture media was then aspirated; the plate was rinsed, air-dried, and fixed with 50 ul/well acetone/methanol (50:50). Viral foci were detected for enumeration by immunostaining as described previously (Rossi et al., 2005). For antiviral testing against DV, DV serotype 2, drug incubations and titrations were performed essentially as described for WNV, except that the virus was harvested from drug-treated cultures 72 hrs after infection, and foci were stained using hybridoma culture fluid harvested from monoclonal antibody-producing hybridoma clone D1-4G2 (Gentry et al., 1982) following 3 days of incubation on Vero cells under the tragacanth overlay.
For this purpose, BHK cells were infected with WNV at an moi of 0.05, and incubated in either the absence or presence of various concentrations of N-butylcyclohexyl-DNJ (SP169) and N-propylcyclohexyl-DNJ (SP173). After three days, the amount of progeny virus produced was determined by plaque assays on indicator Vero cells.

A further data set relates to BHK cells. Nature of the data set: MTT compound toxicity assay on BHK cells. The class given is cell-based. The protocol: as §1
A further data set relates to MHBs. The settings on record: MHBs expressed transiently in cells; read-out: IC50, reduction of secretion of MHBs; cited from earlier work.

Turning to `OC[C@H]1NC[C@H](O)[C@@H](O)[C@@H]1O` [DNJ, 1,5-dideoxy-1,5-imino-D-glucitol, reference compound], in the data set with ER glucosidase, the “inhibition of the ER glucosidase” value is reported as “at least 90%”. Also, in the data set on HBV (6000 uM (6 mM), FIG. 6B), the “reduction of MHBs and LHBs in culture medium (in words)” value is recorded as “antiviral activity at this dose is consistent with previous findings”.
With `OC[C@@H]1[C@@H](O)[C@H](O)[C@@H](O)CN1CCCCCC1(O)CCCCC1` [OSL-95II, N-pentyl(1-hydroxycyclohexyl)-1,5-dideoxy-1,5-imino-D-glucitol], the CC50 at 72 h in [1] is more than 100000 nM; in data set [2] it was more than 500000 nM. The IC50 with BVDV (Bovine viral diarrhea virus isolates and strains, MDBK) is 3000 nM; in the data set on DV serotype 2 (Dengue virus, BHK, 72 h), 2000 nM; in the data set on DV serotype 2 (Dengue virus, BHK, 72 h, read-out: IC50 against DV), 1000 to 2000 nM; in the data set on WNV (West Nile virus, BHK, 48 h), 4500 nM. Besides, the selectivity ratio at 20 h with BVDV (bovine, BVDV (MDBK), read-out: SI (Selective Index, CC50/IC50)) was more than 166. Also, the selectivity ratio at 72 h in the data set with DV serotype 2 (hamster, DV (BHK), read-out: SI (Selective Index, CC50/IC50)) is more than 50. In the data set with MDBK cells (MTT, FIG. 4B), the “toxicity in MDBK cells (in words)” value was “much less toxic than N-pentylcyclohexyl-DNJ (OSL-1); also recorded: significantly less cytotoxic against MDBK cells”. Besides, the selectivity ratio at 48 h with WNV (hamster) was more than 9.
Take `OC[C@@H]1[C@@H](O)[C@H](O)[C@@H](O)CN1CCCCC1CCCCC1` [SP169, N-butylcyclohexyl-DNJ]: the “concentration without any detectable cell toxicity (highest concentration tested)” value in the data set on BHK cells (BHK cells, measured in parallel to WNV assay, data not shown) was 100 µM. Further, the CC50 in the data set with BHK cells (WNV (BHK), MTT, 50% reduction relative to DMSO) is more than 100000 nM; in the data set on MDBK cells (BVDV (MDBK), concentration reducing MTT values (570 nm) by 50% relative to DMSO) it was 300000 nM. Further, the IC50 in the data set on MHBs is not above 35000 nM; in the data set on BVDV (tissue culture, data not shown, read-out: concentration inhibiting 50% of the yield of BVDV), 3000 nM; in the data set with DV serotype 2 (DV (BHK), serotype 2, 72 hrs, read-out: IC50), 1500 nM; with WNV (WNV (BHK), plaque number reduced by 50% relative to DMSO, 48 hours) it was 2500 nM; in the data set with WNV (read-out: concentration inhibiting 50% of the WNV progeny produced, text to FIG. 3B, BHK cells, moi 0.05), 5000 nM. Besides, the “SI (Selective Index, CC50/IC50)” value with BVDV (BVDV (MDBK)) is recorded as more than 100; in the data set on DV serotype 2 (DV (BHK)) it was more than 66; in the data set with WNV (WNV (BHK)) it was more than 40. In addition, the “inhibition of secretion of viral glycoproteins MHBs and LHBs (in words)” value with HBV (50 uM, FIG. 6A) is given as “unable to inhibit secretion of viral glycoproteins”. The “antiviral activity against WNV (in words)” value in the data set on WNV (BHK cells, moi 0.05, FIG. 3B / 4D) is recorded as “comparable to NNDNJ in activity”.

The values above are taken from patent publication US8097728B2, “Iminosugar compounds with antiflavirus activity” (Philadelphia Health & Education Corporation, priority 2007, dated 2012).
